In patent publication US20250144253A1, “3-((3-([1,1'-BIPHENYL]-3-YLMETHOXY)PHENOXY)METHYL)BENZONITRILE DERIVATIVES AND THE USE THEREOF” (HELMHOLTZ-ZENTRUM DRESDEN-ROSSENDORF E.V., priority 2021, published 2025):
Values after ≈ are worked out from the molar mass of the structure shown.

How the values were obtained:
[1] = Water solubility by adding water in 1 μl steps to 1 mg compound; assay type: physicochemical; conditions: thermodynamic from solid
Procedure: The water solubility of compounds 85-90 was determined by weighing 1 mg of the cold compound in an Eppendorf-tube and adding water in 1 μl steps. The addition was performed until everything was dissolved. The value in mg/μl was converted to […].

[2] = Distribution coefficient log D at pH 7.4; assay type: physicochemical; conditions: pH 7.4, n = 3
Text: In general, the more negative the values of log D the better the water solubility.

[3] = molecular target: T1, PD-L1 (Homo sapiens, UniProt Q9NZQ7); test: Saturation binding assay of Cu-64 labelled radioligands on PC3 hPSCA PD-L1 overexpressing cell line; conditions: PC3 hPSCA PD-L1 cells, n = 3; for Kd: 4° C., 90 min
T1 construct: expressed in transfected cells; host or cells: PC3 hPSCA PD-L1 overexpressing cell line
T1 sequence (Q9NZQ7 19-290): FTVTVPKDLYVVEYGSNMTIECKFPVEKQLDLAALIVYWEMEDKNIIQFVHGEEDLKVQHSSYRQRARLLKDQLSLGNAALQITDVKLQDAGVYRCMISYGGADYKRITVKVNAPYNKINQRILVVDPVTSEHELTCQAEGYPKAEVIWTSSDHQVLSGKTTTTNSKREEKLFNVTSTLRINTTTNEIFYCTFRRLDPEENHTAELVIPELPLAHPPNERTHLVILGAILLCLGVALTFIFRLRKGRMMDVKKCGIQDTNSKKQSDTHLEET
Procedure: Experiments were performed on a PC3 hPSCA PD-L1 overexpressing cell line in triplicates and three experiments were performed per compound, resulting in a 3×3 data set per compound (see FIGS. 1 to 3). The saturated, upper curve represents the total binding of the compound whereas the lower, linear curve represents the unspecific binding. The specific binding is represented as the difference between total and unspecific binding.
In the following the procedure for saturation binding assay is explained: The respective Cu-64 labeled compound is prepared freshly for each experiment. The cells with PD-L1 expression were prepared in 48-well plates. Three rows in the plates were designated for determination of total binding and one row for determination of the unspecific binding. For the latter, the cells are pretreated for 15 min with a 300 fold excess of a literature known PD-L1 inhibitor with high binding to PD-L1. […] Protein determination takes place at the next day and provides the Bmax value (total density of PD-L1 receptors on cell surface). Plotting and graphical interpretation provides curves and Kd-values from graph fitting.

[4] = tested on: PD-L1 tumor; test: PET imaging in PD-L1 overexpressing mouse xenograft model; assay type: in vivo
Procedure: Compound 119 was tested in a PD-L1 overexpressing mouse xenograft model. PET images were recorded 2 h, 15 h and 24 h post injection (see FIG. 4). The experiments were performed with compound 119 in duplicates (two mice for each timepoint). About 10 MBq of radiolabelled compound were injected intravenously in the tail vain of an alive mouse. At 2 hrs p.i. the first image was recorded. […] At 5 hrs p.i. the second image was recorded. High uptake in liver; high uptake in colon and intestine and increased uptake in PD-L1 tumor have been observed. At 24 hrs p.i. the third image was recorded. Moderate uptake in liver, low uptake in intestine and moderate uptake in the PD-L1 positive tumor has been observed.

[5] = tested on: PD-L1 tumor; test: as above; assay type: in vivo; conditions: 5 hrs p.i. (second image)

Row | SMILES | solubility [1] [mg/mL] | Log D7.4 [2] | Kd [3] [nM] | Bmax (receptor density) [3] | also measured
1 | CN(CC(=O)NCC(S(=O)(=O)O)S(=O)(=O)O)Cc1cc(Cl)c(OCc2cccc(-c3cccc(OCc4cn(CCCC5CCN(C(=O)CN6CCN(CC(=O)O)CCN(CC(=O)O)CCN(CC(=O)O)CC6)CC5)nn4)c3)c2Br)cc1OCc1cncc(S(C)(=O)=O)c1 [Compound 115] | – | −2.73 ± 0.04 | 585 ± 39.6 | 11.7 ± 0.54 pmol/mg | –
2 | CN(CC(=O)NCC(S(=O)(=O)O)S(=O)(=O)O)Cc1cc(Cl)c(OCc2cccc(-c3cccc(OCc4cn(CCOCCOCCN5CCN(C(=O)CN6CCN(CC(=O)O)CCN(CC(=O)O)CCN(CC(=O)O)CC6)CC5)nn4)c3)c2Br)cc1OCc1cncc(S(C)(=O)=O)c1 [Compound 117] | – | −3.47 ± 0.10 | 357 ± 66.5 | 5.85 ± 1.14 (n = 6) pmol/mg | –
3 | Cc1c(COc2cc(OCc3cncc(S(C)(=O)=O)c3)c(CN(C)CC(=O)NCC(S(=O)(=O)O)S(=O)(=O)O)cc2Cl)cccc1-c1cccc(OCc2cn(CCCC3CCN(C(=O)CN4CCN(CC(=O)O)CCN(CC(=O)O)CCN(CC(=O)O)CC4)CC3)nn2)c1C [Compound 118] | – | −2.75 ± 0.04 | 123 ± 11.7 | 13.5 ± 0.98 pmol/mg | –
4 | Cc1c(COc2cc(OCc3cncc(S(C)(=O)=O)c3)c(CN(C)CC(=O)NCC(S(=O)(=O)O)S(=O)(=O)O)cc2Cl)cccc1-c1cccc(OCc2cn(CCCN3CCN(C(=O)CN4CCN(CC(=O)O)CCN(CC(=O)O)CCN(CC(=O)O)CC4)CC3)nn2)c1C [Compound 119] | – | −3.14 ± 0.02 | 59.9 ± 4.63 | 5.43 ± 0.46 pmol/mg | circulation in the blood pool ([4]; 2 hrs p.i.): did still circulate in the blood pool; uptake in PD-L1 tumor ([4]; 2 hrs p.i.): low; uptake in bladder and intestines ([4]; 2 hrs p.i.): high; uptake in liver ([4]; 2 hrs p.i., about 10 MBq i.v.): Moderate; uptake in intestine ([4]; 24 hrs p.i.): low; uptake in liver ([4]; 24 hrs p.i.): Moderate; uptake in the PD-L1 positive tumor ([4]; 24 hrs p.i.): moderate; uptake in PD-L1 tumor [5]: increased; uptake in colon and intestine [5]: high; uptake in liver [5]: High
5 | Cc1c(COc2cc(OCc3cncc(S(C)(=O)=O)c3)c(CN(C)CC(=O)NCC(S(=O)(=O)O)S(=O)(=O)O)cc2Cl)cccc1-c1cccc(OCc2cn(CCOCCOCCN3CCN(C(=O)CN4CCN(CC(=O)O)CCN(CC(=O)O)CCN(CC(=O)O)CC4)CC3)nn2)c1C [Compound 120] | – | −3.50 ± 0.01 | 71.3 ± 10.1 | 7.04 ± 0.42 pmol/mg | –
6 | Cc1c(COc2cc(OCc3cncc(C#N)c3)c(CN(C)CC(=O)NCC(S(=O)(=O)O)S(=O)(=O)O)cc2Cl)cccc1-c1cccc(OCc2cn(CCCN3CCN(C(=O)CN4CCN(CC(=O)O)CCN(CC(=O)O)CCN(CC(=O)O)CC4)CC3)nn2)c1C [Compound 121] | – | −2.99 ± 0.02 | 128 ± 13.2 | 20.9 ± 2.17 pmol/mg | –
7 | Cc1c(COc2cc(OCc3cncc(C#N)c3)c(CN(C)CC(=O)NCC(S(=O)(=O)O)S(=O)(=O)O)cc2Br)cccc1-c1cccc(OCc2cn(CCCN3CCN(C(=O)CN4CCN(CC(=O)O)CCN(CC(=O)O)CCN(CC(=O)O)CC4)CC3)nn2)c1C [Compound 122] | – | −3.48 ± 0.03 | 135 ± 2.34 | 8.28 ± 0.13 pmol/mg | –
8 | Cc1c(COc2cc(OCc3cncc(C#N)c3)c(CN(C)CC(=O)NCC(S(=O)(=O)O)S(=O)(=O)O)cc2I)cccc1-c1cccc(OCc2cn(CCCN3CCN(C(=O)CN4CCN(CC(=O)O)CCN(CC(=O)O)CCN(CC(=O)O)CC4)CC3)nn2)c1C [Compound 123] | – | −2.89 ± 0.02 | 300 ± 20.6 | 49.6 ± 1.27 pmol/mg | –
9 | Cc1c(COc2cc(OCc3cncc(S(C)(=O)=O)c3)c(CN[C@@H](CS(=O)(=O)O)C(=O)NCCS(=O)(=O)O)cc2Cl)cccc1-c1cccc(OCc2cn(CCCN3CCN(C(=O)[C@H](CS(=O)(=O)O)NC(=O)CC[C@H](C(=O)O)N4CCN(CC(=O)O)CCN(CC(=O)O)CC4)CC3)nn2)c1C [Compound 222] | – | −3.80 ± 0.02 | – | – | –

Further lines, with some results ahead:

Row | solubility [1] [mg/mL] | SMILES | Log D7.4 [2] | Kd [3] [nM] | Bmax (receptor density) [3] | also measured
10 | 80 (≈ 79.7 mM) | CN(CC(=O)NCC(S(=O)(=O)O)S(=O)(=O)O)Cc1cc(Cl)c(OCc2cccc(-c3cccc(OCc4cn(CCCF)nn4)c3)c2Br)cc1OCc1cncc(S(C)(=O)=O)c1 [Compound 85, 2-(2-((4-((2-Bromo-3′-((1-(3-fluoropropyl)-1H-1,2,3-triazol-4-yl)methoxy)-[1,1′-biphenyl]-3-yl)methoxy)-5-chloro-2-((5-(methylsulfonyl)pyridin-3-yl)methoxy)benzyl)(methyl)amino)acetamido)ethane-1,1-disulfonic acid] | – | – | – | –
11 | 110 (≈ 99.2 mM) | CN(CC(=O)NCC(S(=O)(=O)O)S(=O)(=O)O)Cc1cc(Cl)c(OCc2cccc(-c3cccc(OCc4cn([C@@H]5O[C@H](CO)[C@@H](O)[C@H](O)[C@H]5F)nn4)c3)c2Br)cc1OCc1cncc(S(C)(=O)=O)c1 [Compound 86, 2-(2-((4-((2-Bromo-3′-((1-((2R,3R,4S,5S,6R)-3-fluoro-4,5-dihydroxy-6-(hydroxymethyl)tetrahydro-2H-pyran-2-yl)-1H-1,2,3-triazol-4-yl)methoxy)-[1,1′-biphenyl]-3-yl)methoxy)-5-chloro-2-((5-(methylsulfonyl)pyridin-3-yl)methoxy)benzyl)(methyl)amino)acetamido)ethane-1,1-disulfonic acid] | – | – | – | –
12 | 115 (≈ 104 mM) | CN(CC(=O)NCC(S(=O)(=O)O)S(=O)(=O)O)Cc1cc(Cl)c(OCc2cccc(-c3cccc(OCc4cn([C@@H]5O[C@H](CF)[C@@H](O)[C@H](O)[C@H]5O)nn4)c3)c2Br)cc1OCc1cncc(S(C)(=O)=O)c1 [Compound 87, 2-(2-((4-((2-Bromo-3′-((1-((2R,3R,4S,5S,6S)-6-(fluoromethyl)-3,4,5-trihydroxytetrahydro-2H-pyran-2-yl)-1H-1,2,3-triazol-4-yl)methoxy)-[1,1′-biphenyl]-3-yl)methoxy)-5-chloro-2-((5-(methylsulfonyl)pyridin-3-yl)methoxy)benzyl)(methyl)amino)acetamido)ethane-1,1-disulfonic acid] | – | – | – | –
13 | 85 (≈ 89.1 mM) | Cc1c(COc2cc(OCc3cncc(S(C)(=O)=O)c3)c(CN(C)CC(=O)NCC(S(=O)(=O)O)S(=O)(=O)O)cc2Cl)cccc1-c1cccc(OCc2cn(CCCF)nn2)c1C [Compound 88, 2-(2-((5-Chloro-4-((3′-((1-(3-fluoropropyl)-1H-1,2,3-triazol-4-yl)methoxy)-2,2′-dimethyl-[1,1′-biphenyl]-3-yl)methoxy)-2-((5-(methylsulfonyl)pyridin-3-yl)methoxy)benzyl)(methyl)amino)acetamido)ethane-1,1-disulfonic acid] | – | – | – | –
14 | 120 (≈ 113 mM) | Cc1c(COc2cc(OCc3cncc(S(C)(=O)=O)c3)c(CN(C)CC(=O)NCC(S(=O)(=O)O)S(=O)(=O)O)cc2Cl)cccc1-c1cccc(OCc2cn([C@@H]3O[C@H](CO)[C@@H](O)[C@H](O)[C@H]3F)nn2)c1C [Compound 89, 2-(2-((5-Chloro-4-((3′-((1-((2R,3R,4S,5S,6R)-3-fluoro-4,5-dihydroxy-6-(hydroxymethyl)tetrahydro-2H-pyran-2-yl)-1H-1,2,3-triazol-4-yl)methoxy)-2,2′-dimethyl-[1,1′-biphenyl]-3-yl)methoxy)-2-((5-(methylsulfonyl)pyridin-3-yl)methoxy)benzyl)(methyl)amino)acetamido)ethane-1,1-disulfonic acid] | – | – | – | –
15 | 115 (≈ 109 mM) | Cc1c(COc2cc(OCc3cncc(S(C)(=O)=O)c3)c(CN(C)CC(=O)NCC(S(=O)(=O)O)S(=O)(=O)O)cc2Cl)cccc1-c1cccc(OCc2cn([C@@H]3O[C@H](CF)[C@@H](O)[C@H](O)[C@H]3O)nn2)c1C [Compound 90, 2-(2-((5-Chloro-4-((3′-((1-((2R,3R,4S,5S,6S)-6-(fluoromethyl)-3,4,5-trihydroxytetrahydro-2H-pyran-2-yl)-1H-1,2,3-triazol-4-yl)methoxy)-2,2′-dimethyl-[1,1′-biphenyl]-3-yl)methoxy)-2-((5-(methylsulfonyl)pyridin-3-yl)methoxy)benzyl)(methyl)amino)acetamido)ethane-1,1-disulfonic acid] | – | – | – | –
